# Assay results published in PMC6689975, “Novel Cell Wall Antifungals Reveal a Special Synergistic Activity in pbr1 Mutants Resistant to the Glucan Synthesis Antifungals Papulacandins and Echinocandins” (Frontiers in Microbiology, 2019).
# Read-outs that look alike come from different tables or passages of the source.
# What was measured:
# Assay in all cases: microbe, parasite or virus in culture
# [1] = system: T1, S. cerevisiae wild-type CVX12-3A; parameters: species or system whole yeast cells; macro tube broth dilution MIC in YEPD at 30 C, visual clearness of medium; settings: Saccharomyces cerevisiae, 48 h
# T1 construct: CVX12-3A
# Description: (§1) Standard YEPD (Yeast Extract, Peptone, Dextrose) ([Sherman, 1990]), YEPD+S (YEPD with 1.2M sorbitol), YES (Yeast Extract, Dextrose and Supplements of Adenine, Histidine, Leucine, Uracil and Lysine) ([Alfa et al., 1993]) and YES+S (YES with 1.2 M sorbitol) ([Ribas et al., 1991]; [Ishiguro et al., 1997]), media were used for determination of MIC values of the tested compounds. A stock solution of 10 mg/ml of each tested compounds was prepared in DMSO and serial dilutions in DMSO were prepared. The final concentration of DMSO was 2% in the YEPD medium. […] The serial dilutions of compounds were dispensed into test tubes with 1 ml of YEPD or YEPD+S to make final concentrations of 200, 100, 50, 25, 12.5, 6.26, 3.125, 1.6, 0.8 and 0.4 μg/ml. The tested yeast strains were previously grown in YEPD, YEPD+S, YES or YES+S agar plates at 30°C for 48 h. For inoculation of YEPD or YEPD+S macro test tubes a suspension of tested fungus was produced with 10^5 cfu/ml (cfu - colony forming unit). 10 μl of suspension was used for inoculation of each tube. After 48 h incubation at 30°C the tubes were checked. The MIC value is the lowest concentration of the tested compound that could inhibit the fungal growth and the medium remained clear. From each tube 10 μl culture was plated on YEPD agar medium to check the contamination. The MIC tests were carried out in three parallels. The screening of the first generation of isochromanones was carried out in YEPD and YEPD+S media (1E-16E). The fungal strains analyzed are: C. albicans wild-type ATCC 26555, SC5314 and ATCC 90028, S. cerevisiae wild-type CVX12-3A and pbr1-1 mutant, and S. pombe wild-type (972h^–), pbr1-8 mutant and pbr1-6 mutant. The bold numbers in Tables 4–6 indicate the more efficient compounds. […] The weak or moderate efficacy against the C. albicans wild-type strains was observed by some substances (3E, 4Z, 5Z, 10E, 15, and 16E). The efficiency toward the S. pombe pbr1-6 mutant strain was the highest inhibitory activity, except 7E, 11E, 12 and 14E. […] As regards the other S. pombe pbr1-8 mutant strain, the antifungal activity of the tested compounds was slightly lower, but the substances with the best activity are partly identical to the best compounds mentioned with pbr1-6, (i.e., 1E, 3E, 4Z, 5Z).
# [2] = system: T2, S. pombe wild-type 972 h-; parameters: species or system whole yeast cells; macro tube broth dilution MIC in YEPD at 30 C, visual clearness of medium; settings: Schizosaccharomyces pombe, 48 h
# T2 construct: 972 h-
# Description: as §1
# [3] = system: Candida albicans C. a.^f (Tables 5, 6); parameters: species or system yeast; micro tube dilution MIC in YES (± 1.2 M sorbitol), complete growth inhibition by turbidity; settings: 48 h
# Description: (§2) Standard YEPD (Yeast Extract, Peptone, Dextrose) ([Sherman, 1990]), YEPD+S (YEPD with 1.2M sorbitol), YES (Yeast Extract, Dextrose and Supplements of Adenine, Histidine, Leucine, Uracil and Lysine) ([Alfa et al., 1993]) and YES+S (YES with 1.2 M sorbitol) ([Ribas et al., 1991]; [Ishiguro et al., 1997]), media were used for determination of MIC values of the tested compounds. A stock solution of 10 mg/ml of each tested compounds was prepared in DMSO and serial dilutions in DMSO were prepared. The final concentration of DMSO was 2% in the YEPD medium. […] The serial dilutions of compounds were dispensed into test tubes with 1 ml of YEPD or YEPD+S to make final concentrations of 200, 100, 50, 25, 12.5, 6.26, 3.125, 1.6, 0.8 and 0.4 μg/ml. The tested yeast strains were previously grown in YEPD, YEPD+S, YES or YES+S agar plates at 30°C for 48 h. Micro-culture assays of large numbers of samples were analyzed as described) ([Martins et al., 2011]). Essentially early log-phase cells were grown in YEPD, YEPD+S, YES or YES+S (1.2 M sorbitol) medium at 30°C, and diluted to cell density of 4 X 10^6 cells/ml in YEPD, YEPD+S, YES or YES+S medium and aliquots of 100 μl were dispensed into each small test tube (3 ml test tube size). Then, another 100 μl of YEPD, YEPD+S, YES or YES+S with the corresponding dilution of each compound at 2X concentration (4% DMSO) was added. The final volume was 200 μl, with the cells diluted to of 2 X 10^6 cells/ml and each compound diluted to 1X final concentration, containing increasing concentrations of antifungal (0, 1, 2, 5, 10, 20, 50, 100 and 200 μg/ml) or an equivalent volume of solvent (2% DMSO). The cells were grown at 30°C in an orbital roller and turbidity was analyzed after 24 and 48 h of incubation. The MIC was determined as the minimal concentration of tested compound that produced complete cell growth inhibition and kept the medium clear. The MIC values were calculated from at least three independent experiments.
# [4] = system: T3, Saccharomyces cerevisiae S. c.^d (wild-type CVX12-3A); parameters: species or system yeast; micro tube dilution MIC in YES (± 1.2 M sorbitol), complete growth inhibition by turbidity; settings: 48 h
# T3 construct: CVX12-3A
# Description: as §2
# [5] = system: T4, Schizosaccharomyces pombe S. p.^a (wild-type 972 h-); parameters: species or system yeast; micro tube dilution MIC in YES (± 1.2 M sorbitol), complete growth inhibition by turbidity; settings: 48 h
# T4 construct: 972 h-
# Description: as §2
SMILES,MIC ([1]; YEPD medium) [µg/mL],MIC ([2]; YEPD medium) [µg/mL],MIC ([3]; YES + 1.2 M sorbitol) [µg/mL],MIC ([4]; YES + 1.2 M sorbitol) [µg/mL],MIC ([5]; YES + 1.2 M sorbitol) [µg/mL],MIC ([1]; read-out: MIC) [µg/mL],MIC ([2]; read-out: MIC) [µg/mL],MIC ([3]; read-out: MIC) [µg/mL],MIC ([4]; read-out: MIC) [µg/mL],MIC ([5]; read-out: MIC) [µg/mL]
O=c1oc2ccccc2cc1-c1ccccc1CO [compound 15],50,100,> 200,> 200,> 200,,,,,
CC[C@H](C)C[C@H](C)CCCCCCCCC(=O)N[C@H]1C[C@@H](O)[C@@H](NCCN)NC(=O)[C@@H]2[C@@H](O)CCN2C(=O)[C@H]([C@H](O)CCN)NC(=O)[C@H]([C@H](O)[C@@H](O)c2ccc(O)cc2)NC(=O)[C@@H]2C[C@@H](O)CN2C(=O)[C@H]([C@@H](C)O)NC1=O [caspofungin],,,,,,1,5,50,0.5,10
O=c1oc2ccc3ccccc3c2cc1-c1ccccc1CO [compound 12],100,200,> 200,> 200,> 200,,,,,
